The source of these data is a melting point compilation (Tetko et al.; mined from patent text by program, amines drawn as free bases though some values may be those of a salt).

The term melting point denotes the temperature, or range, at which the solid turns liquid. `CCCCOc1ccc(Oc2ccc(C#CC(C)N(O)C(N)=O)o2)cc1` (stereo unspecified): the melting point was in the range of 128 to 129 °C.
In the case of `Cc1cc(NC(=O)NC(=O)c2c(Cl)cccc2Cl)cnc1-c1ccccc1`, the melting point lay within 202 to 205 °C.
For `COc1ccccc1CN1CN2CCCC1C2c1ccccc1` (stereo unspecified) the value was 105 to 107 °C.
The compound `N#CC1C(c2ccccc2)N1C(=O)NC(=O)CCl` (stereo unspecified) returned a melting point of 153 to 158 °C.
`COc1ncc(NS(=O)(=O)c2cccc3c(N(C)C)cccc23)c(OC)n1` gave a melting point of 201 °C.
The result for `CCOC(=O)C(=O)c1csc(NC(=O)Nc2ccccc2)n1` reads 217 to 220 °C; that for `O=C(NC(=S)Nc1nc(-c2ccc3c(c2)CCCC3)cs1)c1ccc(Cl)cc1`, 193 to 194 °C.
For `CC1Oc2ccc(OCCCC(C)(C)C(=O)O)cc2C=C1c1nccn1C` (stereo unspecified) the value was 145 to 146 °C.
Turning to `O=C(O)CCC(=NOCc1ccc(OCc2cc(-c3ccccc3)no2)cc1)c1ccccc1`, the melting point is 96 to 97 °C.
Compound `NC(=O)Nc1c(C(O)(C(F)(F)F)C(F)(F)F)ccc2c1CCCC2` yielded a melting point of 157 to 159 °C.
For the compound `CCc1cc(C(=O)c2ccccc2Cl)c(-n2c(C)nnc2CNC(=O)c2cc3ccccc3n2CCC(=O)OC)s1`, the melting point lay within 67 to 68 °C.
For `N#Cc1c(N)nc2ccc(N3CCN(Cc4ccccc4)CC3)cc2c1Cl` the value was 206 °C; for `CC(=O)NCC1CN(c2cc(F)c(-c3cccnc3)c(F)c2)C(=O)O1` (stereo unspecified), 218 to 219 °C.
In turn, `CCn1nnnc1SCc1c(S(C)(=O)=O)ccc(C(=O)OC)c1Cl` registered a melting point of 109 to 110 °C.
For `COc1nc(C)cnc1NS(=O)(=O)c1ccccc1I` the value was 136 to 138 °C.
For the compound `CC(C)NCC(O)COc1ccccc1-c1ccc(=O)[nH]n1` (stereo unspecified), the melting point was 150 to 152 °C.
The result for `CCCn1nc2c(N)nc3ncccc3c2c1CC(C)(C)C#N` reads 249 to 252 °C; that for `CCOC(=O)N(CC(=O)NCCc1ccc(OC)c(OC)c1)c1cccc(C(N)=O)c1`, 104 to 105 °C; that for `Nc1nc(NC2CCCCC2)nc(NC2CCCCC2)n1`, 153 °C.
In turn, `CCCCNC(=O)N(Cc1ccccn1)C1CCN(c2ncnc3cc(OC)c(OC)cc23)CC1` displayed a melting point of 162 to 164 °C.
With `Cc1nc(-c2ccc(C(F)(F)F)cc2)ccc1CO`, the melting point fell in the range of 76 to 78 °C.
The result for `CCOC(=O)CC1(CC)OCCc2c1[nH]c1ccccc21` (stereo unspecified) reads < 80 °C; that for `CNC(=O)c1ccc(C(=O)O)cc1N`, 215 to 217 °C; that for `CC1(CN=[N+]=[N-])SC2C(NC(=O)Cc3ccccc3)C(=O)N2C1C(=O)OCC(Cl)(Cl)Cl` (stereo unspecified), 105 to 106 °C.
In turn, `O=C(Oc1ccccc1)N1Cc2ccccc2C(Oc2ccc(C(F)(F)F)cc2)C1` (stereo unspecified) gave a melting point of 72 °C.
The result for `Cc1cc(C)nc(NC(=O)Cc2ccsc2)c1` reads 123 to 124 °C; that for `CCOCn1c(C(N)=O)c(OC(C)C)c2cc(OC)ccc21`, 110 to 112 °C.
For `Nc1nc2cc(-c3ccc(C=C4SC(=O)NC4=O)cn3)cc(C34CC5CC(CC(C5)C3)C4)c2o1` the value was > 360 °C.
The result for `CNC(=O)C=Cc1cn(C)nc1[N+](=O)[O-]` reads 200 to 203 °C.
In turn, `Cn1cc(-c2cccc(N3CCc4c(sc5c4CCCC5)C3=O)c2CO)cc(Nc2ccc(C3CNC3)cn2)c1=O` came in with a melting point of 140 to 142 °C.
In turn, `OC(Cn1ncc2c(Br)ncnc21)c1ccccc1` (stereo unspecified) came in with a melting point of 146 to 147 °C.
For `CC(C)c1cccc(C(C)C)c1N=C(Nc1c(C(C)C)cccc1C(C)C)ON=C1CCCCC1` the value was 150 to 152 °C; for `CN1Cc2c(C(=O)OC(C)(C)C)ncn2-c2ccccc2C1=O`, 216 to 217 °C.
For `O=C(CSc1ccccc1)c1ccc2[nH]c3nc(Cl)ccc3c2c1` the value was 256 °C; for `CC(C)Cn1cnc2c(N)nc3ccc(CCc4ccncc4)cc3c21`, 221 to 224 °C.
For the compound `O=C(Cc1ccccc1)CC1c2ccccc2C(=O)N1c1ccc2ccc(Cl)nc2n1` (stereo unspecified), the melting point came out at 182 °C.
For `O=C(CCc1oc(-n2cnc3ccccc32)nc1-c1ccc(Cl)cc1)N1CCS(=O)(=O)C1` the value was 136 to 137 °C; for `Cc1ccc(C(C#N)Nc2ccc(S(C)(=O)=O)cc2)cc1` (stereo unspecified), 158 to 160 °C; for `Cc1ccc(C(=O)c2ccc(C(C)C(=O)O)cc2)s1` (stereo unspecified), 93.7 °C.
`COC(=O)CONC(=O)c1c(Cl)ccc(Cl)c1OC` yielded a melting point of 102 to 105 °C.
For `O=C(NNC(=O)C(F)(F)F)c1ccccc1` the value was 153 to 154 °C.
For `CNC(=S)N1CCN=C1COc1cccc(C)c1C` the value was 100 °C.
Take `Nc1cc(C(c2cc(F)ccc2F)S(=O)(=O)c2ccc(Cl)cc2)c(Br)cn1` (stereo unspecified): the melting point lay in the range of 204 to 206 °C.
For the compound `Cc1nc2cc(Nc3nccc(-c4ccc(Cl)nc4)n3)ccc2s1`, the melting point lay within 235 to 237 °C.
For `COC(=O)c1ccc2c(CBr)csc2c1` the value was 108 to 110 °C; for `COc1cc2ncc(C#N)c(Nc3ccc4[nH]ccc4c3)c2cc1OC`, > 250 °C.
In the case of `CCCCCC(CC(=O)O)c1cc(C(=O)CC)c(OC)cc1OC` (stereo unspecified), the melting point fell in the range of 92.5 to 94 °C.
`Cc1cc(OCC(O)CNC(C)C)c2cc(C(=O)N(C)C)[nH]c2c1` (stereo unspecified) gave a melting point of 169 to 171 °C.
`CS(=O)(=O)Nc1ccc(F)c(C(O)CN)c1` (stereo unspecified) came in with a melting point of 176 to 179 °C.
The result for `CCOC(=O)Cc1nc(-c2ccc(Cl)cc2)oc1-c1ccoc1` reads 124 to 125 °C; that for `ON=Cc1ccc2c(c1)Sc1ccccc1C=C2`, 206 to 207 °C; that for `NS(=O)(=O)c1cccc(-c2cc(-c3nc(-c4ccc(Cl)cc4)cc(C(F)(F)F)n3)ccn2)c1`, 182 °C.
The result for `CCCCCCSc1cc(SCCCCCC)c2ccc3c(SCCCCCC)cc(SCCCCCC)c4ccc1c2c43` reads 92 °C; that for `CCN(CC)CCNC(=O)c1cc(Cl)c(N)cc1OCC(C)=O`, 105 to 106 °C.
For `CC(=O)N1CCN(CC(=O)Nc2ccc3[nH]c(=O)c4cccc5c4c3c2C5)CC1`, the melting point was 155 to 157 °C.
The result for `Cc1ccc(CCCO)c(NCc2ccc3nc(NCCCN4CCOCC4)n(Cc4cccc5cccnc45)c3c2)c1` reads 165 °C.
For `Cc1ccc(-c2[nH]c(-c3cccnc3)nc2C(=O)Nc2nccs2)cc1` the value was > 200 °C.
`COc1ccc(-c2c(NCCc3ccc(C(C)(C)C)cc3)c(=O)c2=O)cc1` displayed a melting point of 258 to 260 °C.
For `CC(C)[C@H]1c2ccc(F)cc2CC[C@]1(O)CCNCc1nc2ccccc2s1` the value was 102 to 103 °C.
On to `C#CCOc1cc(C2(C(F)(F)F)CC(=O)NC(OCC)=N2)c(F)cc1Br` (stereo unspecified), for which the melting point was in the range of 101 to 102 °C.
In the case of `O=C(O)CSc1ccc(/C=C/C(=O)NCc2cccnc2)cc1`, the melting point was in the range of 160 to 161 °C.
For `COc1cc(Nc2c(C#N)cnc3cc(OC)c(Br)cc23)c(Cl)cc1Cl` the value was 256 to 257 °C; for `CCNC(=O)c1ccc(N2CCN(Cc3cnc4c(c3)NC(=O)C3CCCCN43)CC2)cc1` (stereo unspecified), 233 °C.
For the compound `CCOC(=O)c1ccc(C(F)(F)F)cc1N`, the melting point fell in the range of 42 to 43 °C.
`COc1cc(C#N)c(C(C)=O)cc1[N+](=O)[O-]` returned a melting point of 224 to 226 °C.
Regarding `N#CCCNC(=O)c1n[nH]cc1NC(=O)c1ccoc1`, the melting point fell in the range of 250 to 252 °C.
`CCCCCCCCCCCCC1=C(OCC)C(=O)c2ccccc2C1=O` showed a melting point of 36 to 38 °C.
The result for `COc1ccc(OCCCN(Cc2cccc(O)c2)c2nc3ccccc3o2)cc1` reads 104 °C; that for `CN(C)CC(=O)Nc1c(C(=O)c2ccccc2)[nH]c2cc(Cl)ccc12`, 175 to 176 °C; that for `CCN(CC)C(=O)c1ccoc1-c1ccc(C(F)(F)F)cc1`, 45 to 48 °C.
The result for `c1ccc2c(c1)Cn1c(cc3ccccc31)CN2` reads 176 to 177 °C.
For `CC(C)=Cc1cn(-c2c(Cl)cc(C(F)(F)F)cc2Cl)nc1C#N` the value was 72 to 74 °C; for `CS(=O)(=O)Oc1ccc2c(c1)C1(CCCC1)CO2`, 75 to 77 °C; for `FC1(F)N=c2cc3c(cc2=N1)OC(Cl)O3`, > 220 °C.
In turn, `OC1CSC(Oc2cnc(-c3cncnc3)c(F)c2)C(O)C1O` (stereo unspecified) returned a melting point of 192 °C.
For `CNC(=S)C1(c2cccnc2)CCCCS1` (stereo unspecified) the value was 131 °C; for `CCCC1=C(C#N)C(c2ccccc2Cl)c2c(n[nH]c2CCC)N1` (stereo unspecified), 237 °C.
Compound `O=S(=O)(CCNc1ccccc1)NCCCOc1cccc(CN2CCCCC2)c1` had a melting point of 112 to 115 °C.
For `COc1nc2ncnc(NCc3ccco3)c2[nH]1` the value was 196 to 198 °C; for `Cc1nc(N)c2nc(C)n(CCOCCNC(=O)C(C)C)c2c1C`, 180 to 182 °C.
Consider `Clc1ccc2nc(-c3ccsc3)c(I)n2n1`, for which the melting point lay in the range of 203 to 206 °C.
For `Nc1nc2ccccc2c2c1ncn2CCOCCCc1ccccn1` the value was 138 to 140 °C.
The result for `CSC1(C)C(=O)Nc2c(C(=O)c3ccccc3)cccc21` (stereo unspecified) reads 135 to 137 °C.
Take `N#Cc1cc(-c2ccc(Cl)s2)[nH]c1Cl`: the melting point was > 200 °C.
The compound `O=[N+]([O-])c1cccc(CN2CCC(c3cc(-c4ccc(Cl)cc4)[nH]n3)CC2)c1` had a melting point of 174 to 176 °C.
The result for `O=Cc1cc(O)c(O)c(C=O)c1` reads 192 to 195 °C.
For the compound `CN(CCOc1ccc(NS(C)(=O)=O)cc1)CCc1ccc(NS(C)(=O)=O)cc1`, the melting point was in the range of 150 to 152 °C.
In turn, `CCCc1cc(Cl)c2oc(Cc3ccc(Cl)cc3)c(C)c2c1O` came in with a melting point of 76 to 77 °C.
For `CSc1ccc(C=CC#N)cc1` the value was 79 °C; for `NCCCC[C@H](O)C(=O)O`, 197 to 199 °C.
The result for `CC1CCN(C2=NCC(=O)N(C)c3ccccc32)CC1` reads 106 to 108 °C.
